Results: patent US20130323171A1, “RADIOLABELED BBN ANALOGS FOR PET IMAGING OF GASTRIN-RELEASING PEPTIDE RECEPTORS” (priority 2012, published 2013)
Square brackets hold non-standard residues; d marks the D form. Peptide text beside a SMILES is read from it. Sta = CC(C)C[C@H](N)[C@@H](O)CC(=O)O; 4Abz = Nc1ccc(C(=O)O)cc1

Assays:
[1] = Mouse serum stability of the PET probes; format: in vitro ADME; conditions: 37° C., 1 h
Description: The in vitro stability of the PET probes was evaluated by incubation with mouse serum (1 mL) at 37° C. for 1 h. The solutions were filtered using a NanoSep 10 K centrifuge (Pall Corp.) to isolate low-molecular-weight radiocomplexes. The samples were analyzed by the radio-HPLC, and the percentages of intact PET probe were determined by quantifying the peaks corresponding with the intact probe and degradation products.
More than 95% of the probes remained intact after 1 h of incubation in mouse serum at 37° C.

[2] = target: T1, GRPR (Homo sapiens, UniProt P30550); experiment: Cell-binding assay: inhibition of ^125I-[Tyr4]BBN binding on PC3 cells; conditions: 0.06 nM radioligand, 37° C., 1 h, n=4, mean±SD
T1 construct: endogenous in cells; host or cells: PC3 cells
Description: The cell-binding assay was performed similarly as previously reported (18, 35). Briefly, the PC3 cells (3×10^4) were incubated with 0.06 nM ^125I-[Tyr4]BBN and varying concentrations of peptides in the binding buffer (RPMI 1640+2 mg/mL BSA+5.2 mg/mL HEPES) at 37° C. for 1 h. The cell-bound, residual radioactivity after washing was determined by gamma counting. […] The experiments were performed in quadruplicate.
All of these peptides inhibited the GRPR-binding of ^125I-[Tyr4]BBN on the PC3 cells in a concentration-dependent manner.

T1 sequence (P30550 whole entry): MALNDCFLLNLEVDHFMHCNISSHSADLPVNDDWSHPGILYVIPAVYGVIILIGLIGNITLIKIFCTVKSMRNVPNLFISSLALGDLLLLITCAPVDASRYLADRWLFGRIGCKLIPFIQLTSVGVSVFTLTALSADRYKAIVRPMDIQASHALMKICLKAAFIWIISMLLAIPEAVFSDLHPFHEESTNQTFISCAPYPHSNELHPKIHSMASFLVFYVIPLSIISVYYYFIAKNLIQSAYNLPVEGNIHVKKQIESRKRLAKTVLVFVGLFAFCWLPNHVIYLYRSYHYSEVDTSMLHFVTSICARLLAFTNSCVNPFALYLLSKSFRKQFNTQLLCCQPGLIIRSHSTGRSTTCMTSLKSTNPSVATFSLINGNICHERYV

CSCC[C@H](NC(=O)[C@H](CC(C)C)NC(=O)[C@H](Cc1c[nH]cn1)NC(=O)CNC(=O)[C@@H](NC(=O)[C@H](C)NC(=O)[C@H](Cc1c[nH]c2ccccc12)NC(=O)[C@H](CCC(N)=O)NC(=O)c1ccc(NC(=O)CNC(=O)CCC(C(=O)O)N2CCN(CC(=O)O)CCN(CC(=O)O)CC2)cc1)C(C)C)C(N)=O (single isomer, unassigned) [^64Cu-NODAGA-AMBA, metal not drawn]
stability in mouse serum [1]: exhibited degradation

CC(C)C[C@H](NC(=O)C[C@H](O)[C@H](CC(C)C)NC(=O)[C@H](Cc1c[nH]cn1)NC(=O)CNC(=O)[C@@H](NC(=O)[C@H](C)NC(=O)[C@H](Cc1c[nH]c2ccccc12)NC(=O)[C@H](CCC(N)=O)NC(=O)[C@@H](Cc1ccccc1)NC(=O)c1ccc(NC(=O)CN)cc1)C(C)C)C(N)=O [RM1, G-4-aminobenzoyl-D-Phe-Gln-Trp-Ala-Val-Gly-His-Sta-Leu-NH2] (H-G[4Abz][dF]QWAVGH[Sta]L-NH2; N-terminus assumed)
IC50 [2]: 0.25 ± 0.04 nM

CSCC[C@H](NC(=O)[C@H](CC(C)C)NC(=O)[C@H](Cc1c[nH]cn1)NC(=O)CNC(=O)[C@@H](NC(=O)[C@H](C)NC(=O)[C@H](Cc1c[nH]c2ccccc12)NC(=O)[C@H](CCC(N)=O)NC(=O)c1ccc(NC(=O)CN)cc1)C(C)C)C(N)=O [AMBA]
IC50 [2]: 0.17 ± 0.07 nM
